The values that follow come from ChEMBL document CHEMBL1909046, “DrugMatrix in vitro pharmacology data”.

pIC50: −log10 of the molar value.
Note: in other assays of this panel Not Active means under 50% inhibition at 10 µM.

Voltage-gated inwardly rectifying potassium channel KCNH2, sequence (Q12809 whole entry): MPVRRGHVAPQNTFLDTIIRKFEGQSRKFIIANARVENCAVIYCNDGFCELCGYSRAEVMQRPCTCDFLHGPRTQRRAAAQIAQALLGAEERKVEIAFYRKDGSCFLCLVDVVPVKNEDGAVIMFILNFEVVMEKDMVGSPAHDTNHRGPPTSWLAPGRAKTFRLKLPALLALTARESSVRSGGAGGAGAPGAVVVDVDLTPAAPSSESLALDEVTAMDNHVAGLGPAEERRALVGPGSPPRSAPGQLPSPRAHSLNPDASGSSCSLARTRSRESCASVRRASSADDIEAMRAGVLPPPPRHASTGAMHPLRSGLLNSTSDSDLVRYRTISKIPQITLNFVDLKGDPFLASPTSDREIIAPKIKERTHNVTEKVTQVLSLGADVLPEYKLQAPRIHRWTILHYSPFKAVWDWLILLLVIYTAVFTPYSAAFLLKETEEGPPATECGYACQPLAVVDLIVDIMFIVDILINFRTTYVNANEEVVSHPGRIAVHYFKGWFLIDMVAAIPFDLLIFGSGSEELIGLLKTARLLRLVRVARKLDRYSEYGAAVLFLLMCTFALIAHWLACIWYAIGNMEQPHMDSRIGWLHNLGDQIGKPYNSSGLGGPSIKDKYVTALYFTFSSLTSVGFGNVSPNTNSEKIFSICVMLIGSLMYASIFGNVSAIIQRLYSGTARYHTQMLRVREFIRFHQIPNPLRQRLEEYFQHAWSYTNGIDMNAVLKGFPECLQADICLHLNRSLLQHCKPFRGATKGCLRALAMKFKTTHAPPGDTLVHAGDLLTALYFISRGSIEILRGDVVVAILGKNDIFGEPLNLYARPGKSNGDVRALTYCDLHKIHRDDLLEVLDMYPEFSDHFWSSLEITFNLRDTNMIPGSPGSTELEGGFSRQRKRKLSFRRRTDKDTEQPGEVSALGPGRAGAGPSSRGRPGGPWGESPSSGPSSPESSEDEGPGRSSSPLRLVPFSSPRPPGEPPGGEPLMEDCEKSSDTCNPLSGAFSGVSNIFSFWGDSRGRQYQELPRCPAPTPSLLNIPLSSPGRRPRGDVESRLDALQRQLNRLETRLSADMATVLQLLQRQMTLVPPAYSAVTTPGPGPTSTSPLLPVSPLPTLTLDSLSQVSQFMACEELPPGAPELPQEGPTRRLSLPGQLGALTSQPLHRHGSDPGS

The target of one series is Melanocortin receptor 5 (Homo sapiens, UniProt P33032).
Melanocortin receptor 5, sequence (P33032 whole entry): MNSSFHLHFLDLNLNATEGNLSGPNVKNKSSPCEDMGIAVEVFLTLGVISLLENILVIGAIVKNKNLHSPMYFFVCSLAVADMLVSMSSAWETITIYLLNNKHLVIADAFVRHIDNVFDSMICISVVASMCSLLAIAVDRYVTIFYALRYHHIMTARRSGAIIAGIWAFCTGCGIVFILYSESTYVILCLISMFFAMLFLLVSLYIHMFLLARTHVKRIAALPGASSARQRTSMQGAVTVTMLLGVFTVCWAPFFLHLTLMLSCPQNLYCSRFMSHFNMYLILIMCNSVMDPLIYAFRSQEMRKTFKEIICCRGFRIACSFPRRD
Assay: not given
The following applies: hek293. It counts as cell membranes, HEK293, Membrane.
Turning to `N=C(N)NC(=O)Cc1c(Cl)cccc1Cl` [GUANFACINE], the IC50 result was “Not Active”.

For the molecule `Oc1c(Cl)cc(Cl)c(Cl)c1Cc1c(O)c(Cl)cc(Cl)c1Cl` [HEXACHLOROPHENE], the IC50 entry is on record as “Not Active”.

As for `NNc1nncc2ccccc12` [HYDRALAZINE], the IC50 entry was “Not Active”.

For `CC(=O)[C@@]1(O)CC[C@H]2[C@@H]3CCC4=CC(=O)CC[C@]4(C)[C@H]3CC[C@@]21C` [HYDROXYPROGESTERONE], the IC50 entry was “Not Active”.

Consider `COC1=C(OC)C(=O)C(CCCCCCCCCCO)=C(C)C1=O` [IDEBENONE], for which the IC50 result is listed as “Not Active”.

As for `CC(C)NNC(=O)c1ccncc1` [IPRONIAZID], the IC50 result is given as “Not Active”.

On to `Cc1c(OCC(F)(F)F)ccnc1C[S+]([O-])c1nc2ccccc2[nH]1` (stereo not given) [LANSOPRAZOLE], for which the IC50 entry is listed as “Not Active”.

Regarding `O=c1cc(N2CCOCC2)oc2c(-c3ccccc3)cccc12` [LY-294002], the IC50 result is given as “Not Active”.

In the case of `COc1ccc2[nH]cc(CCNC(C)=O)c2c1` [MELATONIN], the IC50 result was “Not Active”.

Turning to `NC(=O)C[S+]([O-])C(c1ccccc1)c1ccccc1` (stereo not given) [MODAFINIL], the IC50 entry was “Not Active”.

For another series, the target named is Mitogen-activated protein kinase 14 (Homo sapiens, UniProt Q16539).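 Note: inhibition of p38alpha enzyme activity in a biochemical kinase assay, with myelin basic protein serving as substrate.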
Mitogen-activated protein kinase 14, sequence (Q16539 whole entry): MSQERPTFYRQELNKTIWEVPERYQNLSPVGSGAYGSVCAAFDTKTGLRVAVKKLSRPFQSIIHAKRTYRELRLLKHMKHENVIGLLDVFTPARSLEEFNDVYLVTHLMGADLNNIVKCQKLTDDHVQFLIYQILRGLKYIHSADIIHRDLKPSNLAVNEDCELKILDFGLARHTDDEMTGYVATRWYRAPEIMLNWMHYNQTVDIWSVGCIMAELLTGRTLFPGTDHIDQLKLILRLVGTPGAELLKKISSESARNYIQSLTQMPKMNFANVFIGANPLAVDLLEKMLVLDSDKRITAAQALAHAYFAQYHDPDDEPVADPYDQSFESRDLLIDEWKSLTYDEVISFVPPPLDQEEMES
Assay: not given
Also on record: species or system Escherichia coli.
Conditions: not given
`N=C(N)NC(=O)Cc1c(Cl)cccc1Cl` [GUANFACINE]: the IC50 result is listed as “Not Active”.

With `NNc1nncc2ccccc12` [HYDRALAZINE], the IC50 result is reported as “Not Active”.

For `CC(=O)[C@@]1(O)CC[C@H]2[C@@H]3CCC4=CC(=O)CC[C@]4(C)[C@H]3CC[C@@]21C` [HYDROXYPROGESTERONE], the IC50 entry was “Not Active”.

On to `COC1=C(OC)C(=O)C(CCCCCCCCCCO)=C(C)C1=O` [IDEBENONE], for which the IC50 entry is listed as “Not Active”.

For `CC(C)NNC(=O)c1ccncc1` [IPRONIAZID], the IC50 entry is on record as “Not Active”.

Consider `Cc1c(OCC(F)(F)F)ccnc1C[S+]([O-])c1nc2ccccc2[nH]1` (stereo not given) [LANSOPRAZOLE], for which the IC50 entry is reported as “Not Active”.

In the case of `O=c1cc(N2CCOCC2)oc2c(-c3ccccc3)cccc12` [LY-294002], the IC50 entry is given as “Not Active”.

With `COc1ccc2[nH]cc(CCNC(C)=O)c2c1` [MELATONIN], the IC50 entry is given as “Not Active”.

As to `NC(=O)C[S+]([O-])C(c1ccccc1)c1ccccc1` (stereo not given) [MODAFINIL], the IC50 result is reported as “Not Active”.

The same series, now with this note: read-out: IC50.
With `Oc1c(Cl)cc(Cl)c(Cl)c1Cc1c(O)c(Cl)cc(Cl)c1Cl` [HEXACHLOROPHENE], the pIC50 – broadly, the IC50 on a negative log10 scale, so that one unit is a factor of ten – is 7.06.

Another series concerns the target Voltage-gated inwardly rectifying potassium channel KCNH2 (Homo sapiens, UniProt Q12809).
Assay: not given
The note with it: hek293.
For `N=C(N)NC(=O)Cc1c(Cl)cccc1Cl` [GUANFACINE], the IC50 entry is recorded as “Not Active” and the Ki entry was “Not Active”.

In the case of `Oc1c(Cl)cc(Cl)c(Cl)c1Cc1c(O)c(Cl)cc(Cl)c1Cl` [HEXACHLOROPHENE], the IC50 entry is recorded as “Not Active” and the Ki entry is “Not Active”.

As for `NNc1nncc2ccccc12` [HYDRALAZINE], the IC50 result was “Not Active” and the Ki entry is recorded as “Not Active”.

For `CC(=O)[C@@]1(O)CC[C@H]2[C@@H]3CCC4=CC(=O)CC[C@]4(C)[C@H]3CC[C@@]21C` [HYDROXYPROGESTERONE], the IC50 entry was “Not Active” and the Ki result was “Not Active”.

Consider `COC1=C(OC)C(=O)C(CCCCCCCCCCO)=C(C)C1=O` [IDEBENONE], for which the IC50 result is listed as “Not Active” and the Ki result was “Not Active”.

Take `CC(C)NNC(=O)c1ccncc1` [IPRONIAZID]: the IC50 entry is recorded as “Not Active” and the Ki result is given as “Not Active”.

Regarding `Cc1c(OCC(F)(F)F)ccnc1C[S+]([O-])c1nc2ccccc2[nH]1` (stereo not given) [LANSOPRAZOLE], the IC50 entry was “Not Active” and the Ki entry is given as “Not Active”.

In the case of `O=c1cc(N2CCOCC2)oc2c(-c3ccccc3)cccc12` [LY-294002], the IC50 result was “Not Active” and the Ki entry was “Not Active”.

For the molecule `COc1ccc2[nH]cc(CCNC(C)=O)c2c1` [MELATONIN], the IC50 entry is given as “Not Active” and the Ki entry was “Not Active”.

With `NC(=O)C[S+]([O-])C(c1ccccc1)c1ccccc1` (stereo not given) [MODAFINIL], the IC50 entry is on record as “Not Active” and the Ki result is reported as “Not Active”.

In another series the target is T1, Receptor-type tyrosine-protein phosphatase C (Homo sapiens, UniProt P08575).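 Note: inhibition of CD45 enzyme activity measured using DiFMUP as substrate.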
T1 sequence (P08575 whole entry): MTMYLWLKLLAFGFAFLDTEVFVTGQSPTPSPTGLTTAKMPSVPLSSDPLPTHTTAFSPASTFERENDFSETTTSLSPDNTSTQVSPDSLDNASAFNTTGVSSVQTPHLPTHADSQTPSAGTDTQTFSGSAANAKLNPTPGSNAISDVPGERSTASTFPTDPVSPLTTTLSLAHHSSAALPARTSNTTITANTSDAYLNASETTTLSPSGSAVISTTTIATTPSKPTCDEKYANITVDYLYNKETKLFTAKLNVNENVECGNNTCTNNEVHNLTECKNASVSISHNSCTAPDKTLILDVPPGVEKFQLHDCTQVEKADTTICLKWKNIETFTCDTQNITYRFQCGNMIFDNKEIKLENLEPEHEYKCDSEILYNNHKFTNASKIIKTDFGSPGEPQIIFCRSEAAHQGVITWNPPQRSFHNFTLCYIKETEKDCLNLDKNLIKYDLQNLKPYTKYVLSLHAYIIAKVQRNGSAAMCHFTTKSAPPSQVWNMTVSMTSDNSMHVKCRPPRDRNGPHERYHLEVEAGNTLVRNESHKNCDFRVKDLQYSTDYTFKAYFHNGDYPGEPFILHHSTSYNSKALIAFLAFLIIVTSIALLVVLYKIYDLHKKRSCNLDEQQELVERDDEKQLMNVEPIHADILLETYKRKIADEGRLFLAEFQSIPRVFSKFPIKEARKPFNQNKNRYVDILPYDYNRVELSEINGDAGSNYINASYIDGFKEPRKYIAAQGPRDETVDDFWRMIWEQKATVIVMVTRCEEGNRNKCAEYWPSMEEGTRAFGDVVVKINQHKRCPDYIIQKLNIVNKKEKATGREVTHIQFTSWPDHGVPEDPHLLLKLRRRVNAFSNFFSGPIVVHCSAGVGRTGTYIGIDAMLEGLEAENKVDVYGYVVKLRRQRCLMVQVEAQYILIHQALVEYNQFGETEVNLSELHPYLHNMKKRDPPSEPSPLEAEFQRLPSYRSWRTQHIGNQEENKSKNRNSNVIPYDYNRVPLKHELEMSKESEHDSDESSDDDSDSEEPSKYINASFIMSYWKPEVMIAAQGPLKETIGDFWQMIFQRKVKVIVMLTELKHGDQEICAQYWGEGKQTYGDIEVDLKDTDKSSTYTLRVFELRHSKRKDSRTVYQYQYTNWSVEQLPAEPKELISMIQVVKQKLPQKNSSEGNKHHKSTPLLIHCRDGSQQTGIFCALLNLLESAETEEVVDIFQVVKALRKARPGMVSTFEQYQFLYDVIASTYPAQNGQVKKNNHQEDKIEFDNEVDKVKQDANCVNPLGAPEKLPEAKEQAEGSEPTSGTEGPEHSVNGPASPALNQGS
Assay: not given
Conditions: not given
More on the design: species or system Escherichia coli.
For the molecule `N=C(N)NC(=O)Cc1c(Cl)cccc1Cl` [GUANFACINE], the IC50 entry is reported as “Not Active”.

`Oc1c(Cl)cc(Cl)c(Cl)c1Cc1c(O)c(Cl)cc(Cl)c1Cl` [HEXACHLOROPHENE]: the IC50 result is “Not Active”.

For the molecule `NNc1nncc2ccccc12` [HYDRALAZINE], the IC50 result is “Not Active”.

Turning to `CC(=O)[C@@]1(O)CC[C@H]2[C@@H]3CCC4=CC(=O)CC[C@]4(C)[C@H]3CC[C@@]21C` [HYDROXYPROGESTERONE], the IC50 entry was “Not Active”.

As to `COC1=C(OC)C(=O)C(CCCCCCCCCCO)=C(C)C1=O` [IDEBENONE], the IC50 entry is “Not Active”.

Regarding `CC(C)NNC(=O)c1ccncc1` [IPRONIAZID], the IC50 entry is on record as “Not Active”.

Turning to `Cc1c(OCC(F)(F)F)ccnc1C[S+]([O-])c1nc2ccccc2[nH]1` (stereo not given) [LANSOPRAZOLE], the IC50 result is “Not Active”.

As to `O=c1cc(N2CCOCC2)oc2c(-c3ccccc3)cccc12` [LY-294002], the IC50 entry is “Not Active”.

`COc1ccc2[nH]cc(CCNC(C)=O)c2c1` [MELATONIN]: the IC50 result is “Not Active”.

With `NC(=O)C[S+]([O-])C(c1ccccc1)c1ccccc1` (stereo not given) [MODAFINIL], the IC50 result is “Not Active”.

For the next series, the target named is Tyrosine-protein kinase Fyn (Homo sapiens, UniProt P06241). Nature of the series: biochemical. It counts as cell-based, Insect cells. The following applies: insect cells.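 Note: enzymatic inhibition of Fyn kinase activity measured with Poly(Glu:Tyr) as the phosphorylation substrate.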
Tyrosine-protein kinase Fyn, sequence (P06241 whole entry): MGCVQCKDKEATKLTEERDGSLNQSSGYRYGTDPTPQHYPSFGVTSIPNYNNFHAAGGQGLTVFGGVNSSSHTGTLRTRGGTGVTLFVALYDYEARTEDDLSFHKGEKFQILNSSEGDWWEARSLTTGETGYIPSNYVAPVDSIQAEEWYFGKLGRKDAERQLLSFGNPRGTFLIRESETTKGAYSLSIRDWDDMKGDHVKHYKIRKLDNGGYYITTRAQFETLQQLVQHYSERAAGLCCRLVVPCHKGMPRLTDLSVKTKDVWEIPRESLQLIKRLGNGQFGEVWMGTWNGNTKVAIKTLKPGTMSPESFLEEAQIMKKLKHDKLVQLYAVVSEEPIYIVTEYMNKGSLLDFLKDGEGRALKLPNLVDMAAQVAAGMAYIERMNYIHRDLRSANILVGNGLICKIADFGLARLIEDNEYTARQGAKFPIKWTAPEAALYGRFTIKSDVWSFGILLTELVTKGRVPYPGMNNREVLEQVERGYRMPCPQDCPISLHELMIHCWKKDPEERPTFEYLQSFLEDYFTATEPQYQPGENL
`N=C(N)NC(=O)Cc1c(Cl)cccc1Cl` [GUANFACINE]: the IC50 result is listed as “Not Active”.

In the case of `NNc1nncc2ccccc12` [HYDRALAZINE], the IC50 entry is listed as “Not Active”.

Turning to `CC(=O)[C@@]1(O)CC[C@H]2[C@@H]3CCC4=CC(=O)CC[C@]4(C)[C@H]3CC[C@@]21C` [HYDROXYPROGESTERONE], the IC50 entry was “Not Active”.

Turning to `COC1=C(OC)C(=O)C(CCCCCCCCCCO)=C(C)C1=O` [IDEBENONE], the IC50 entry is “Not Active”.

Take `CC(C)NNC(=O)c1ccncc1` [IPRONIAZID]: the IC50 result is given as “Not Active”.

For the molecule `Cc1c(OCC(F)(F)F)ccnc1C[S+]([O-])c1nc2ccccc2[nH]1` (stereo not given) [LANSOPRAZOLE], the IC50 result is “Not Active”.

Consider `O=c1cc(N2CCOCC2)oc2c(-c3ccccc3)cccc12` [LY-294002], for which the IC50 entry is listed as “Not Active”.

For the molecule `COc1ccc2[nH]cc(CCNC(C)=O)c2c1` [MELATONIN], the IC50 entry is recorded as “Not Active”.

Take `NC(=O)C[S+]([O-])C(c1ccccc1)c1ccccc1` (stereo not given) [MODAFINIL]: the IC50 result is listed as “Not Active”.

The same series, now with this note: read-out: IC50.
Take `Oc1c(Cl)cc(Cl)c(Cl)c1Cc1c(O)c(Cl)cc(Cl)c1Cl` [HEXACHLOROPHENE]: the pIC50 was 5.46.

The next series has as its target T2, Calcitonin receptor (Homo sapiens, UniProt P30988).
T2 sequence (P30988 whole entry): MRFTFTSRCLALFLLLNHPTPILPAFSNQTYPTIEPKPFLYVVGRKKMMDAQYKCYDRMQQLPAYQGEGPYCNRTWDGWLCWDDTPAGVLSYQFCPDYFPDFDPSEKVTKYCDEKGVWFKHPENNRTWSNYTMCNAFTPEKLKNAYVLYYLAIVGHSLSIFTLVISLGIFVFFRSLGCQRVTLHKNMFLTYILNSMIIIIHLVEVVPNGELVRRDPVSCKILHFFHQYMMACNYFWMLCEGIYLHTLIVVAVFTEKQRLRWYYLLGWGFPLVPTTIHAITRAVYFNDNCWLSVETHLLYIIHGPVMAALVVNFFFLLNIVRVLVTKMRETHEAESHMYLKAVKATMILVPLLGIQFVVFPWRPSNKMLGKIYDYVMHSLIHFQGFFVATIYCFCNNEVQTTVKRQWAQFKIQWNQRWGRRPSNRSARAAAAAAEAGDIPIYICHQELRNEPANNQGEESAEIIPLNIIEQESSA
Assay: not given
It counts as cell membranes, Membrane. The following applies: t47d.
As for `N=C(N)NC(=O)Cc1c(Cl)cccc1Cl` [GUANFACINE], the IC50 result is “Not Active”.

Regarding `Oc1c(Cl)cc(Cl)c(Cl)c1Cc1c(O)c(Cl)cc(Cl)c1Cl` [HEXACHLOROPHENE], the IC50 result is listed as “Not Active”.

For the molecule `NNc1nncc2ccccc12` [HYDRALAZINE], the IC50 entry is listed as “Not Active”.

Take `CC(=O)[C@@]1(O)CC[C@H]2[C@@H]3CCC4=CC(=O)CC[C@]4(C)[C@H]3CC[C@@]21C` [HYDROXYPROGESTERONE]: the IC50 entry is listed as “Not Active”.

For the molecule `COC1=C(OC)C(=O)C(CCCCCCCCCCO)=C(C)C1=O` [IDEBENONE], the IC50 result is given as “Not Active”.

Take `CC(C)NNC(=O)c1ccncc1` [IPRONIAZID]: the IC50 result is given as “Not Active”.

Regarding `Cc1c(OCC(F)(F)F)ccnc1C[S+]([O-])c1nc2ccccc2[nH]1` (stereo not given) [LANSOPRAZOLE], the IC50 result is listed as “Not Active”.

In the case of `O=c1cc(N2CCOCC2)oc2c(-c3ccccc3)cccc12` [LY-294002], the IC50 entry is recorded as “Not Active”.

Turning to `COc1ccc2[nH]cc(CCNC(C)=O)c2c1` [MELATONIN], the IC50 entry is “Not Active”.

On to `NC(=O)C[S+]([O-])C(c1ccccc1)c1ccccc1` (stereo not given) [MODAFINIL], for which the IC50 entry is recorded as “Not Active”.
